From BigSolDB 2.1

O=C[C@H](O)[C@@H](O)[C@H](O)[C@H](O)CO
Conditions | solubility (mole fraction)
in n-decanol, 348.15 K | 0.000902
in n-decanol, 353.15 K | 0.000984
in n-decanol, 357.15 K | 0.00119
in n-decanol, 367.15 K | 0.00154
in n-decanol, 372.15 K | 0.00178
in n-decanol, 377.15 K | 0.00204
in n-decanol, 382.15 K | 0.00239
in n-decanol, 387.15 K | 0.00264
in n-decanol, 392.15 K | 0.00327
in n-dodecanol, 349.15 K | 0.000762
in n-dodecanol, 355.15 K | 0.000802
in n-dodecanol, 360.15 K | 0.000865
in n-dodecanol, 365.15 K | 0.0011
in n-dodecanol, 370.15 K | 0.0013
in n-dodecanol, 375.15 K | 0.0014
in n-dodecanol, 382.15 K | 0.00156
in n-dodecanol, 387.15 K | 0.00186
in n-dodecanol, 393.15 K | 0.00203
in n-octanol, 345.15 K | 0.00098
in n-octanol, 355.15 K | 0.00153
in n-octanol, 364.15 K | 0.00192
in n-octanol, 369.15 K | 0.00228
in n-octanol, 374.15 K | 0.00241
in n-octanol, 379.15 K | 0.0029
in n-octanol, 383.15 K | 0.00341
